Values quoted from earlier work, collected in patent publication US20040259844A1 (priority 2000, published 2004).

System: retinal ganglion cells

## CN1[C@@H]2CC[C@H]1C[C@@H](OC(=O)C(CO)c1ccccc1)C2 (stereo partly shown) [atropine]
  effect on veratridine-increased survival of retinal ganglion cells: blocked
